Measured values as given in US12492212B2, “Substituted pyrazolecarboxamides as sting activators” (Shanghai Institute of Materia Medica, Chinese Academy of …, priority 2019, dated 2025).

How the values were obtained:
EMT6 breast cancer = EMT6 breast cancer orthotopic transplantation tumor model; assay type: in vivo, Balb/C female mice; settings: EMT6, Balb/C mice, 1 mg/kg, 1st, 4th and 9th days after grouping, vs negative control, FIG. 2
Experimental: Example 26: The Efficacy Study of the Compound of the Present Invention in the EMT6 Breast Cancer Orthotopic Transplantation Tumor Model
In this experiment, 4-6 weeks old Balb/C female mice were used, and EMT6 cells (2.5*10^5) were injected subcutaneously into axils of each mouse. The tumor growth of mice was observed. Grouping was started when the tumor volume was 50-100 mm^3. The compound 19 of the present invention and the negative control were administrated on 1st, 4th and 9th days after grouping. The dosage of compound 19 of the present invention was 1 mg/kg. The experimental results were evaluated in the form of tumor volume growth curves, and the experimental results were shown in FIG. 2.

CT26 colon cancer = CT26 colon cancer subcutaneous transplantation tumor model; assay type: in vivo, Balb/C female mice; settings: CT26, Balb/C mice, 0.1 mg/kg and 0.3 mg/kg, 1st, 4th and 7th days after grouping, vs negative control, FIG. 1
Experimental: Example 25: The Efficacy Study of the Compound of the Present Invention in the CT26 Colon Cancer Subcutaneous Transplantation Tumor Model
In this experiment, 4-6 weeks old Balb/C female mice were used, and CT26 cells (2.5*10^5) were injected subcutaneously into axils of each mouse. The tumor growth of mice was observed. Grouping was started when the tumor volume was 50-100 mm^3. The compound 19 of the present invention and the negative control were administrated. The compound 19 of the present invention and the negative control were administrated on 1st, 4th and 7th days after grouping. The dosage of the compound 19 in each group was 0.1 mg/kg and 0.3 mg/kg respectively. The experimental results were evaluated in the form of tumor volume growth curves, and the experimental results were shown in FIG. 1.

STING [1] = molecular target: T1, STING (Homo sapiens, UniProt Q86WV6, G230A/H232R/R293Q/R71H); test: Type I interferon pathway (ISG) luciferase reporter in human THP1-Dual cells; assay type: cell-based; settings: test concentration 10 μM, 24 hours, ratio of LUM of compound to LUM of blank control
T1 construct: THP1-Dual cells in the experiment were purchased from InvivoGen company; host or cells: THP1-Dual cells
Experimental: In this experiment, the ability of compounds to activate STING was evaluated by detecting the ability of compounds to stimulate the production of IFN-β in human peripheral blood mononuclear cell line THP1-Dual cells. THP1-Dual cells in the experiment were purchased from InvivoGen company. […] THP1-Dual cells were counted, cell concentration was adjusted to be 1×10^6/ml, and 180 μl of cells was added to each well for incubation. […] In addition, the blank group was added with 200 μl of culture solution. After 24 hours, 20 μl of culture solution was took from each well to a new bottom transparent 96-well plate, and 50 μl luciferase detection reagent QUANTI-Luc™ was added, the fluorescence value was immediately determined. […] The data were described by the ratio of the LUM of compound to the LUM of blank control.

STING [2] = molecular target: T2, STING (Homo sapiens, UniProt Q86WV6); test: IFN β release from human PBMC cells stimulated by compound (ELISA); assay type: cell-based; settings: LPS 10 ng/ml, cultured overnight
T2 construct: host or cells: human PBMCs
Experimental: Example 23: Activation Effect of Compound on Type I Interferon Pathway (ISG) Produced by Human Peripheral Blood Mononuclear Cell Line PBMC Cells
In this experiment, the function of STING agonist was evaluated by detecting the changes of type I interferon IFN β produced by compound stimulating human peripheral blood mononuclear cell line PBMC cells (AllCells, Cat #: PB005F). Before use, cryopreserved PBMCs were thawed in RPMI1640 medium and resuscitated overnight. The test compound was dissolved into DMSO and formulated as a mother liquor with a concentration of 10 mM. Before testing, the compound was diluted to 100 times of the working concentration (the working concentration was 30, 10, 3.33, 1.11, 0.370, 0.123, 0.0412, 0.0137 uM, respectively). PBMCs were collected and adjusted to a cell concentration of 5×10^5/ml. LPS was added to PBMCs at a final concentration of 10 ng/ml. In the 96-well cell culture plate, 200 ul PBMCs (1×10^5 cells per well) were added to each well. Then 2 ul diluted compound per well (duplicate wells, the final concentration of DMSO in each well was 1%) was added. Then a pipette was used to carefully mix the cells and the compound evenly. 2 ul DMSO (1% of final concentration) was added to the negative control. The cells were cultured overnight in an incubator at 37° C. The cell culture supernatant was collected to detect the concentration of type I interferon IFN β. The concentration of IFNβ was determined by ELISA kit of solid-phase antibody R&D-MAB8144-100 and detecting antibody R&D-MAB8143-100 (Biotinylated), converted into […] concentration according to standard curve, and EC50 value was calculated by GraphPad 5.0 fitting calibration curve.

T1 sequence (Q86WV6 whole entry R71H/G230A/H232R/R293Q): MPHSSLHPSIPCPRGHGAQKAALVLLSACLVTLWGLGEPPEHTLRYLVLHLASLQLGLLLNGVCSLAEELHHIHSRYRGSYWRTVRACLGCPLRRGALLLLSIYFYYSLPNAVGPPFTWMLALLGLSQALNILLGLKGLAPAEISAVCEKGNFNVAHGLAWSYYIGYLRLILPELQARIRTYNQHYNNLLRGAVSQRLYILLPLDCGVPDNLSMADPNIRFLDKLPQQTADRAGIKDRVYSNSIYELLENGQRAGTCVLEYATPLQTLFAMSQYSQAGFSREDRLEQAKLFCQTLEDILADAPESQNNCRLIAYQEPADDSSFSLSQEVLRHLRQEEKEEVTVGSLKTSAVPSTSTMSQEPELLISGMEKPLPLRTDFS
T2 sequence (Q86WV6 whole entry H232R): as the sequence (Q86WV6 whole entry R71H/G230A/H232R/R293Q) above, with H71R, A230G, Q293R counted along it

SMILES	Fold change (Ratio to control) (STING [1])	also measured
CCn1nc(C)cc1C(=O)Nc1nc2cc(C(N)=O)cc(OCCCN3CCOCC3)c2n1C/C=C/Cn1c(NC(=O)c2cc(C)nn2CC)nc2cc(C(N)=O)c3oc(C)cc3c21 [Example 19]	90.48	anti-tumor effect (tumor volume growth curves) (EMT6 breast cancer): significant anti-tumor effect; anti-tumor effect (tumor volume growth curves) (CT26 colon cancer): significant anti-tumor effect
CCn1nc(C)cc1C(=O)Nc1nc2cc(C(N)=O)cc(OC)c2n1C/C=C/Cn1c(NC(=O)c2cc(C)nn2CC)nc2cc(C(N)=O)cc(OCCCN3CCOCC3)c21 [GSK compound 3, reference compound]	70.83	–
Cc1cc(C(=O)Nc2nc3cc(C(N)=O)cc(OCCCN4CCOCC4)c3n2C/C=C/Cn2c(NC(=O)c3cc(C)nn3CC(F)(F)F)nc3cc(C(N)=O)c4oc(C)cc4c32)n(CC(F)(F)F)n1 [Example 20]	159.71	–
CCn1nc(C)cc1C(=O)Nc1nc2cc(C(N)=O)cc(OC)c2n1CCCCn1c(NC(=O)c2cc(C)nn2CC)nc2cc(C(N)=O)c3oc(C)cc3c21 [Example 2]	53.15	EC50 (STING [2]): 103 nM
C=CCn1nc(C)cc1C(=O)Nc1nc2cc(C(N)=O)cc(OCCCO)c2n1C/C=C/Cn1c(NC(=O)c2cc(C)nn2CC=C)nc2cc(C(N)=O)c3oc(C)cc3c21 [Example 9]	148.64	–
COc1cc(C(N)=O)cc2nc(NC(=O)c3cc(C)nn3CC(F)(F)F)n(C/C=C/Cn3c(NC(=O)c4cc(C)nn4CC(F)(F)F)nc4cc(C(N)=O)c5oc(C)cc5c43)c12 [Example 6]	86.31	–
COc1cc(C(N)=O)cc2nc(NC(=O)c3cc(C)nn3CC3CC3)n(C/C=C/Cn3c(NC(=O)c4cc(C)nn4CC4CC4)nc4cc(C(N)=O)c5oc(C)cc5c43)c12 [Example 5]	66.65	–
CCn1nc(C)cc1C(=O)Nc1nc2cc(C(N)=O)cc(OC)c2n1CCCCn1c(NC(=O)c2cc(C)nn2CC)nc2cc(C(N)=O)c3c(c21)CC(C)(C)O3 [Example 1, 1-(4-(5-carbamoyl-2-(1-ethyl-3-methyl-1H-pyrazol-5-formamido)-7-methoxy-1H-benzo[d]imidazol-1-yl)butyl)-2-(1-ethyl-3-methyl-1H-pyrazol-5-formamido)-7,7-dimethyl-7,8-dihydro-1H-benzofuran[4,5-d]imidazol-5-formamide]	–	EC50 (STING [2]): 362 nM
CCn1nc(C)cc1C(=O)Nc1nc2cc(C(N)=O)ccc2n1C/C=C/Cn1c(NC(=O)c2cc(C)nn2CC)nc2cc(C(N)=O)cc(OCCCO)c21 [GSK compound 1, reference compound]	80.54	–
C#CCn1nc(C)cc1C(=O)Nc1nc2cc(C(N)=O)cc(OCCCO)c2n1C/C=C/Cn1c(NC(=O)c2cc(C)nn2CC#C)nc2cc(C(N)=O)c3oc(C)cc3c21 [Example 10]	13.14	–
CCn1nc(C)cc1C(=O)Nc1nc2cc(C(N)=O)cc(OC)c2n1C/C=C/Cn1c(NC(=O)c2cc(C)nn2CC)nc2cc(C(N)=O)c3oc(C)cc3c21 [Example 3, (E)-1-(4-(5-carbamoyl-2-(1-ethyl-3-methyl-1H-pyrazol-5-formamido)-7-methoxy-1H-benzo[d]imidazol-1-yl)but-2-en-1-yl)-2-(1-ethyl-3-methyl-1H-pyrazol-5-formamido)-7-methyl-1H-benzofuran[4,5-d]imidazol-5-formamide]	62.82	EC50 (STING [2]): 4.92 nM
C=CCn1nc(C)cc1C(=O)Nc1nc2cc(C(N)=O)cc(OC3COC3)c2n1C/C=C/Cn1c(NC(=O)c2cc(C)nn2CC=C)nc2cc(C(N)=O)c3oc(C)cc3c21 [Example 18]	175.49	–
